Five compounds from patent US9187486B2 (AMGEN INC., priority 2011, dated 2015) can be followed below.

In assay [1] the target is T1, Pim-2 (Homo sapiens (Human), UniProt Q9P1W9). The assay is described as follows: Pim-Mn enzyme assay (HTRF, 384-well), Pim-2. As to conditions: Pim-2 enzyme 0.5 pM, ATP […], read-out: Pim-2-Mn IC50 IP. Type of assay: biochemical. The source says: (§1) Full-length human cDNAs encoding Pim-1 (MGC ID 3913552) or Pim-2 (IMAGE ID 5092935) were purchased from Invitrogen, Carlsbad, Calif. These cDNAs were used as templates in PCR reactions to produce full-length DNA clones of the PIMs. Oligonucleotide PCR primers for Pim-1 were 5′-[…]-3′ and 5′-[…]-3′. Oligonucleotide PCR primers for Pim-2 were 5′-[…]-3′ and 5′-[…]-3′. PCR products were digested with BclI and EcoRI for Pim-1 and BamHI and EcoRI for Pim-2 and ligated into a modified baculovirus transfer vector (pFastBac 1) cleaved with BamHI and EcoRI. […]
(§2) The frozen cell pellets were thawed by stirring in chilled lysis buffer (0.05 M HEPES, pH 8.0, 0.25 M NaCl, 0.01 M 2-mercaptoethanol, 10% (w/v) glycerol, 0.5% (v/v) protease inhibitor cocktail (Sigma P-8340) at a ratio of 1 L/200 g cells until homogeneous. The thawed suspension was applied to a microfluidizer at 10,000 PSI to disrupt the cells and the whole lysates were clarified by centrifugation at 50,000×g for 90 min, 4° C. Imidazole was added to the clarified lysate to a final concentration of 2.5 mM and the lysate was mixed with 10 mL of Talon resin (Clontech) and the slurry rocked gently overnight at 4° C. […] Fractions were analyzed by SDS-PAGE and those containing the protein of interest were pooled and concentrated. […] The protein eluted at a retention time indicative of it being monomeric and fractions were analyzed by SDS-PAGE. […]

Assay [2] concerns the target T2, Pim-1 (Homo sapiens (Human), UniProt P11309). The assay is described as follows: Pim-Mn enzyme assay (HTRF, 384-well), Pim-1. To be noted: Pim-1 enzyme 5 pM, ATP […], read-out: Pim-1-Mn IC50 IP. Type of assay: biochemical.
Excerpt: as §1, §2

For assay [3], the target named is T1, Pim-2. Description: Pim enzyme assay (HTRF, phosphorylation of biotinylated-BAD (S112) peptide), Pim-2. Type of assay: biochemical. To be noted: read-out: Pim-2 IC50 IP. In outline: (§3)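 Full-length human Pim-1 or Pim-2 with an N-terminal His6 tag, expressed in Sf9 or E. coli and purified as monomer. HTRF read-out: biotinylated BAD (S112) peptide phosphorylation detected with streptavidin-APC plus Eu-anti-phospho-BAD(S112) antibody, excitation 337 nm, emission 665 nm.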
On the technique in general: In TR-FRET formats the signal depends on donor and acceptor labels being close together.

The target of assay [4] is T2, Pim-1. Description: Pim enzyme assay (HTRF, phosphorylation of biotinylated-BAD (S112) peptide), Pim-1. It counts as biochemical. As to conditions: full length recombinant Pim-1, biotinylated-BAD (S112) peptide, HTRF, 96-well; read-out: Pim-1 IC50 IP. A digest of the protocol: as §3
The test system of assay [5] is KMS-12-BM myeloma cell line. The assay is described as follows: Pim cell assay: phospho-BAD (S112) and total BAD in KMS-12-BM cells. Type of assay: cell-based. As to conditions: Homo sapiens, KMS-12-BM, 1 hour and 50 minutes incubation, read-out: KMS-12-BM IC50 IP. A digest of the protocol:
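KMS-12-BM myeloma cells, after overnight culture, got a 10-point compound dose series (0.3% DMSO) for 1 h 50 min at 37 °C. Lysates measured for phospho-BAD (S112) and total BAD by MSD immunoassay; % phosphoprotein = 2×phospho/(phospho+total)×100.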

[6] abbreviates: full length recombinant Pim-2, biotinylated-BAD (S112) peptide, HTRF, 96-well.

T2 sequence (P11309 whole entry): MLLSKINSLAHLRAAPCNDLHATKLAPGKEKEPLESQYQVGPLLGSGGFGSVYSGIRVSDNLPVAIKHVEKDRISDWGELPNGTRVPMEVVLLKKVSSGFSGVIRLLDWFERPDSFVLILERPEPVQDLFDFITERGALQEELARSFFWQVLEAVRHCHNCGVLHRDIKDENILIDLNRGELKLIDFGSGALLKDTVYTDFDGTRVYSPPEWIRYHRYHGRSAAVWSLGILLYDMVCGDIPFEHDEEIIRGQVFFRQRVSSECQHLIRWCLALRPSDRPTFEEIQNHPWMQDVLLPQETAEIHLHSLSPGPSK
T1 sequence (Q9P1W9 whole entry): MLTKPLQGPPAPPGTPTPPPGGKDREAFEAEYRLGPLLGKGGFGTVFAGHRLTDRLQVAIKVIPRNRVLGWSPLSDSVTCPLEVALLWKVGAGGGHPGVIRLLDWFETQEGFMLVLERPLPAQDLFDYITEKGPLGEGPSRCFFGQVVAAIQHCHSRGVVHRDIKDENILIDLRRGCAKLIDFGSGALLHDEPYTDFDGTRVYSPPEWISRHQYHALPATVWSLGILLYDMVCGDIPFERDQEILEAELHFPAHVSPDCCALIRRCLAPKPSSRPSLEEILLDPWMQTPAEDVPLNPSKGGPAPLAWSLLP

By IC50 is commonly meant the concentration that gives 50% inhibition. For `Cc1noc(C)c1-c1ccncc1Nc1ncc2ccc(-c3c(F)cccc3F)nn12` [Example 106, 2-(2,6-Difluorophenyl)-N-(4-(3,5-dimethylisoxazol-4-yl)pyridin-3-yl)imidazo[1,5-b]pyridazin-7-amine bis(2,2,2-trifluoroacetate)], the IC50 at Pim-2 [1] was above 5000 nM; at Pim-1 [2], 221 nM.
Take `Fc1cccc(F)c1-c1ccc2cnc(Nc3cnccc3C3=CCNCC3)n2n1` [Example 105, 2-(2,6-Difluorophenyl)-N-(1′,2′,3′,6′-tetrahydro-[4,4′-bipyridin]-3-yl)imidazo[1,5-b]pyridazin-7-amine bis(2,2,2-trifluoroacetate)]: the IC50 was 1050 nM at Pim-2 [1] and 35 nM at Pim-1 [2].
In the case of `C[C@@H]1C[C@H](N)CN(c2ccncc2Nc2ncc3ccc(-c4nccs4)nn23)C1` [Example 62, N-(4-((3S,5R)-3-amino-5-methylpiperidin-1-yl)pyridin-3-yl)-2-(thiazol-2-yl)imidazo[1,5-b]pyridazin-7-amine bis(2,2,2-trifluoroacetate)], the half-maximal inhibitory concentration (IC50) on Pim-2 [3] was 0.4 nM; on Pim-1 [4], 0.3 nM; in assay [5], 183 nM.
As to `Cc1cc(N)cc(-c2ccncc2Nc2ncc3ccc(-c4c(F)cccc4F)nn23)c1` [Example 42, N-(4-(3-amino-5-methylphenyl)-3-pyridinyl)-2-(2,6-difluorophenyl)imidazo[1,5-b]pyridazin-7-amine], the results for the IC50 (at Pim-2 [3] (setting [6]); at Pim-1 [4]; in assay [5]) were 34.4 nM, 8.6 nM and 9860 nM, respectively.
For `N[C@H]1C[C@@H](C(F)(F)F)CN(c2ccncc2Nc2ncc3ccc(-c4c(F)cccc4F)nn23)C1` (racemic) [Example 60, rac-N-(4-((cis)-3-amino-5-(trifluoromethyl)piperidin-1-yl)pyridin-3-yl)-2-(2,6-difluorophenyl)imidazo[1,5-b]pyridazin-7-amine bis(2,2,2-trifluoroacetate)] the same measures were 0.3 nM, 0.1 nM and 116 nM.
